# Assay results taken from PubChem BioAssay AID2060607 (Molecular Pharmacology Branch, DTP, NCI, 2025).
# System: 876862-298-R-J1-PDC complex spheroids, viability % test/control
# Experiment: Anticancer human tumor 876862-298-R-J1-PDC patient-derived endometrial carcinoma cell line growth inhibition [CLK]
# Details: for IC50: curve of first compound; for viability, T/C: stronger effect = lower value
# Method in brief: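 Patient-derived tumor cells grown as complex spheroids with HUVEC endothelial cells and mesenchymal stem cells, treated with drug combinations. Concentrations descend in half-log steps from near clinical Cmax, or from 10 microM if Cmax unknown.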
# [1] = second compound 0.0316 µM, first compound 0.0316 µM
# [2] = second compound 0.0316 µM, first compound 0.1 µM
# [3] = second compound 0.0316 µM, first compound 0.316 µM
# [4] = second compound 0.0316 µM, first compound 1 µM
# [5] = second compound 0.0316 µM, first compound 3.16 µM
# [6] = second compound 0.0316 µM, first compound 10 µM
# [7] = second compound 0.1 µM, first compound 0.0316 µM
# [8] = second compound 0.1 µM, first compound 0.1 µM
# [9] = second compound 0.1 µM, first compound 0.316 µM
# [10] = second compound 0.1 µM, first compound 1 µM
# [11] = second compound 0.1 µM, first compound 3.16 µM
# [12] = second compound 0.1 µM, first compound 10 µM
# [13] = second compound 0.316 µM, first compound 0.0316 µM
# [14] = second compound 0.316 µM, first compound 0.1 µM
# [15] = second compound 0.316 µM, first compound 0.316 µM
# [16] = second compound 0.316 µM, first compound 1 µM
# [17] = second compound 0.316 µM, first compound 3.16 µM
# [18] = second compound 0.316 µM, first compound 10 µM
# [19] = second compound 1 µM, first compound 0.0316 µM
# [20] = second compound 1 µM, first compound 0.1 µM
# [21] = second compound 1 µM, first compound 0.316 µM
# [22] = second compound 1 µM, first compound 1 µM
# [23] = second compound 1 µM, first compound 3.16 µM
# [24] = second compound 1 µM, first compound 10 µM
# [25] = second compound 3.16 µM, first compound 0.0316 µM
# [26] = second compound 3.16 µM, first compound 0.1 µM
# [27] = second compound 3.16 µM, first compound 0.316 µM
# [28] = second compound 3.16 µM, first compound 1 µM
# [29] = second compound 3.16 µM, first compound 3.16 µM
# [30] = second compound 3.16 µM, first compound 10 µM
# [31] = second compound 10 µM, first compound 0.0316 µM
# [32] = second compound 10 µM, first compound 0.1 µM
# [33] = second compound 10 µM, first compound 0.316 µM
# [34] = second compound 10 µM, first compound 1 µM
# [35] = second compound 10 µM, first compound 3.16 µM
# [36] = second compound 10 µM, first compound 10 µM
# 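Further: spheroids exposed to drugs for 7 days before readout.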
# 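Wherever viability, T/C is given: 100% = DMSO vehicle control wells.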
compound,measurement,setting,value
CC1(C)CCC(CN2CCN(c3ccc(C(=O)NS(=O)(=O)c4ccc(NCC5CCOCC5)c([N+](=O)[O-])c4)c(Oc4cnc5[nH]ccc5c4)c3)CC2)=C(c2ccc(Cl)cc2)C1 + CN1CCN(c2cc(C(=O)Nc3cc4cc(-c5cnn(C)c5)ccc4cn3)ccn2)CC1,IC50,second compound 0.0316 µM,5740 nM
same,IC50,second compound 0.1 µM,< 31.6 nM
same,IC50,second compound 0.316 µM,< 31.6 nM
same,IC50,second compound 1 µM,< 31.6 nM
same,IC50,second compound 3.16 µM,< 31.6 nM
same,IC50,second compound 10 µM,< 31.6 nM
same,"viability, T/C",[1],95%
same,"viability, T/C",[2],89.1%
same,"viability, T/C",[3],90.4%
same,"viability, T/C",[4],89.2%
same,"viability, T/C",[5],94.7%
same,"viability, T/C",[6],11.1%
same,"viability, T/C",[7],52.3%
same,"viability, T/C",[8],47.5%
same,"viability, T/C",[9],45.5%
same,"viability, T/C",[10],46.1%
same,"viability, T/C",[11],43.8%
same,"viability, T/C",[12],3.97%
same,"viability, T/C",[13],2.64%
same,"viability, T/C",[14],2.13%
same,"viability, T/C",[15],2.43%
same,"viability, T/C",[16],2.21%
same,"viability, T/C",[17],1.34%
same,"viability, T/C",[18],0.56%
same,"viability, T/C",[19],0.41%
same,"viability, T/C",[20],1.28%
same,"viability, T/C",[21],0.52%
same,"viability, T/C",[22],0.24%
same,"viability, T/C",[23],0.22%
same,"viability, T/C",[24],0.53%
same,"viability, T/C",[25],0.68%
same,"viability, T/C",[26],0.51%
same,"viability, T/C",[27],0.52%
same,"viability, T/C",[28],0.34%
same,"viability, T/C",[29],0.16%
same,"viability, T/C",[30],0.09%
same,"viability, T/C",[31],0.38%
same,"viability, T/C",[32],0.67%
same,"viability, T/C",[33],0.34%
same,"viability, T/C",[34],0.45%
same,"viability, T/C",[35],0.19%
same,"viability, T/C",[36],1.19%
CC1COCCN1c1cc(C2(S(C)(=N)=O)CC2)nc(-c2ccnc3[nH]ccc23)n1 (stereo unspecified) + CN1CCN(c2cc(C(=O)Nc3cc4cc(-c5cnn(C)c5)ccc4cn3)ccn2)CC1,IC50,second compound 0.0316 µM,2100 nM
same,IC50,second compound 0.1 µM,< 31.6 nM
same,IC50,second compound 0.316 µM,< 31.6 nM
same,IC50,second compound 1 µM,< 31.6 nM
same,IC50,second compound 3.16 µM,< 31.6 nM
same,IC50,second compound 10 µM,< 31.6 nM
same,"viability, T/C",[1],89.1%
same,"viability, T/C",[2],87.5%
same,"viability, T/C",[3],76.5%
same,"viability, T/C",[4],62.1%
same,"viability, T/C",[5],43.6%
same,"viability, T/C",[6],17.9%
same,"viability, T/C",[7],45.1%
same,"viability, T/C",[8],51.9%
same,"viability, T/C",[9],38.9%
same,"viability, T/C",[10],33.6%
same,"viability, T/C",[11],18.4%
same,"viability, T/C",[12],7.47%
same,"viability, T/C",[13],2.43%
same,"viability, T/C",[14],2.03%
same,"viability, T/C",[15],2.19%
same,"viability, T/C",[16],2.32%
same,"viability, T/C",[17],2.12%
same,"viability, T/C",[18],1.33%
same,"viability, T/C",[19],0.64%
same,"viability, T/C",[20],0.83%
same,"viability, T/C",[21],0.8%
same,"viability, T/C",[22],0.51%
same,"viability, T/C",[23],0.47%
same,"viability, T/C",[24],0.27%
same,"viability, T/C",[25],0.98%
same,"viability, T/C",[26],1.82%
same,"viability, T/C",[27],0.92%
same,"viability, T/C",[28],0.81%
same,"viability, T/C",[29],0.61%
same,"viability, T/C",[30],0.4%
same,"viability, T/C",[31],0.94%
same,"viability, T/C",[32],0.66%
same,"viability, T/C",[33],1.4%
same,"viability, T/C",[34],0.63%
same,"viability, T/C",[35],0.59%
same,"viability, T/C",[36],0.74%
NC(=O)C(=Cn1cnc(-c2cc(C(F)(F)F)cc(C(F)(F)F)c2)n1)c1cncnc1 + CN1CCN(c2cc(C(=O)Nc3cc4cc(-c5cnn(C)c5)ccc4cn3)ccn2)CC1,IC50,second compound 0.0316 µM,29.4 nM
same,IC50,second compound 0.1 µM,< 9.49 nM
same,IC50,second compound 0.316 µM,< 9.49 nM
same,IC50,second compound 1 µM,< 9.49 nM
same,IC50,second compound 3.16 µM,< 9.49 nM
same,IC50,second compound 10 µM,< 9.49 nM
same,"viability, T/C","second compound 0.0316 µM, first compound 0.00949 µM",67.5%
same,"viability, T/C","second compound 0.0316 µM, first compound 0.03 µM",49.3%
same,"viability, T/C","second compound 0.0316 µM, first compound 0.0949 µM",33%
same,"viability, T/C","second compound 0.0316 µM, first compound 0.3 µM",24.1%
same,"viability, T/C","second compound 0.0316 µM, first compound 0.949 µM",11.3%
same,"viability, T/C","second compound 0.0316 µM, first compound 3 µM",2.88%
same,"viability, T/C","second compound 0.1 µM, first compound 0.00949 µM",38.5%
same,"viability, T/C","second compound 0.1 µM, first compound 0.03 µM",30.8%
same,"viability, T/C","second compound 0.1 µM, first compound 0.0949 µM",21.1%
same,"viability, T/C","second compound 0.1 µM, first compound 0.3 µM",4.49%
same,"viability, T/C","second compound 0.1 µM, first compound 0.949 µM",0.38%
same,"viability, T/C","second compound 0.1 µM, first compound 3 µM",0.99%
same,"viability, T/C","second compound 0.316 µM, first compound 0.00949 µM",1.38%
same,"viability, T/C","second compound 0.316 µM, first compound 0.03 µM",0.32%
same,"viability, T/C","second compound 0.316 µM, first compound 0.0949 µM",0.86%
same,"viability, T/C","second compound 0.316 µM, first compound 0.3 µM",0.98%
same,"viability, T/C","second compound 0.316 µM, first compound 0.949 µM",0.83%
same,"viability, T/C","second compound 0.316 µM, first compound 3 µM",1.69%
same,"viability, T/C","second compound 1 µM, first compound 0.00949 µM",0.33%
same,"viability, T/C","second compound 1 µM, first compound 0.03 µM",0.27%
same,"viability, T/C","second compound 1 µM, first compound 0.0949 µM",0.22%
same,"viability, T/C","second compound 1 µM, first compound 0.3 µM",0.36%
same,"viability, T/C","second compound 1 µM, first compound 0.949 µM",0.45%
same,"viability, T/C","second compound 1 µM, first compound 3 µM",1.17%
same,"viability, T/C","second compound 3.16 µM, first compound 0.00949 µM",0.3%
same,"viability, T/C","second compound 3.16 µM, first compound 0.03 µM",1.41%
same,"viability, T/C","second compound 3.16 µM, first compound 0.0949 µM",0.93%
same,"viability, T/C","second compound 3.16 µM, first compound 0.3 µM",0.82%
same,"viability, T/C","second compound 3.16 µM, first compound 0.949 µM",1.14%
same,"viability, T/C","second compound 3.16 µM, first compound 3 µM",1.63%
same,"viability, T/C","second compound 10 µM, first compound 0.00949 µM",1.33%
same,"viability, T/C","second compound 10 µM, first compound 0.03 µM",1.7%
same,"viability, T/C","second compound 10 µM, first compound 0.0949 µM",1.02%
same,"viability, T/C","second compound 10 µM, first compound 0.3 µM",1.05%
same,"viability, T/C","second compound 10 µM, first compound 0.949 µM",1.22%
same,"viability, T/C","second compound 10 µM, first compound 3 µM",1.15%
